Results on 15 molecules are retold here after ChEMBL document CHEMBL5210121, “Affinity On-target Cellular Literature for EUbOPEN Chemogenomics Library wave 3” (2023).

The target in assay [1] is Histone-lysine N-methyltransferase, H3 lysine-79 specific (Homo sapiens, UniProt Q8TEK3). Description: Affinity On-target Cellular interaction (Western Blot (reduction of H3K79 dimethylation in A431 cells by DOT1L)) EUB0000216b DOT1L. It counts as cell-based. Set-up: mode of action Inhibitor, recommended concentration 1 uM.
In assay [2] the target is Leucine-rich repeat serine/threonine-protein kinase 2 (Homo sapiens, UniProt Q5S007). Description: Affinity On-target Cellular interaction (Cellular assay (LRRK2 phosphorylation)) EUB0000629a LRRK2. Also on record: mode of action Inhibitor, recommended concentration 100 nM.
The target in assay [3] is Bromodomain adjacent to zinc finger domain protein 2A (Homo sapiens, UniProt Q9UIF9). Description: Affinity On-target Cellular interaction (Chemoproteomic competition binding assay (endogenous full-length BAZ2A from HuT78 extracts)) EUB0000267b BAZ2A. Also on record: mode of action Negative control for GSK2801, recommended concentration 1 uM.
In assay [4] the target is Bromodomain adjacent to zinc finger domain protein 2B (Homo sapiens, UniProt Q9UIF8). Description: Affinity On-target Cellular interaction (Chemoproteomic competition binding assay (endogenous full-length BAZ2B captured on the GSK8573 affinity matrix from HuT-78 cell lysate) ) EUB0000267b BAZ2B. Set-up: mode of action Negative control for GSK2801, recommended concentration 1 uM.

In assay [5] the target is Transient receptor potential cation channel subfamily A member 1 (Homo sapiens, UniProt O75762). Description: Affinity On-target Cellular interaction (Electrophysiological assay (inhibition of AITC (allylthiocyanate, 100 µmol/L)-evoked currents in HEK293F cells transiently overexpressing hTRPA1)) EUB0000308b TRPA1. Set-up: mode of action Antagonist, recommended concentration 1 uM. The assay is classed as cell-based.

Another assay deals with CREB-binding protein (Homo sapiens, UniProt Q92793). Description: Affinity On-target Cellular interaction (NanoBRET assay (HEK293T cells)) EUB0000195c CREBBP. Also on record: mode of action Inhibitor, recommended concentration 1 uM.
The target of assay [6] is Chromatin remodeling regulator CECR2 (Homo sapiens, UniProt Q9BXF3). Description: Affinity On-target Cellular interaction (NanoBRET assay (dose-dependent displacement from histone H3.3 in HEK293T cells)) EUB0000201c CECR2. It counts as cell-based. Also on record: mode of action Inhibitor, recommended concentration 1 uM.
For assay [7], the target named is Histone acetyltransferase KAT2A (Homo sapiens, UniProt Q92830). Description: Affinity On-target Cellular interaction (Competing pull-down assay (full-length GCN5 from cell lysates using immobilized L-Moses)) EUB0000218c KAT2A. Also on record: mode of action Inhibitor, recommended concentration 1 uM.
The target of assay [8] is Histone acetyltransferase KAT2B (Homo sapiens, UniProt Q92831). Description: Affinity On-target Cellular interaction (Competing pull-down assay (full-length PCAF from cell lysates using immobilized L-Moses)) EUB0000218c KAT2B. Set-up: mode of action Inhibitor, recommended concentration 1 uM.
Assay [9] is described as follows: Affinity On-target Cellular interaction (Binding assay in HEK293 cells) EUB0000337aCl P2RY14.
Assay [10] has as its target RAC-alpha serine/threonine-protein kinase (Homo sapiens, UniProt P31749). Description: Affinity On-target Cellular interaction (NanoBRET assay (HEK293T cells)) EUB0000721a AKT1.
Assay [11] deals with RAC-beta serine/threonine-protein kinase (Homo sapiens, UniProt P31751). Description: Affinity On-target Cellular interaction (NanoBRET assay (HEK293T cells)) EUB0000721a AKT2.
In assay [12] the target is RAC-gamma serine/threonine-protein kinase (Homo sapiens, UniProt Q9Y243). Description: Affinity On-target Cellular interaction (NanoBRET assay (HEK293T cells)) EUB0000721a AKT3.
Assay [13] concerns the target T1, Nucleosome-remodeling factor subunit BPTF (Homo sapiens, UniProt Q12830). Description: Affinity On-target Cellular interaction (NanoBRET assay (HEK293T cells)) EUB0000254b BPTF. Also on record: mode of action Negative control for NVS-BPTF-1, recommended concentration 1 uM.
Assay [14] concerns the target T1, Nucleosome-remodeling factor subunit BPTF.
Assay [15] has as its target Histone-lysine N-methyltransferase SETD7 (Homo sapiens, UniProt Q8WTS6). Description: Affinity On-target Cellular interaction (Immunoblot (increase in nuclear YAP levels by treatment of MEFs (from Setd7+/+ mice) with 10 µM PFI-2)) EUB0000196bCl SETD7. Set-up: mode of action Inhibitor, recommended concentration 1 uM.
Assay [16] deals with Tyrosine-protein kinase JAK3 (Homo sapiens, UniProt P52333). Description: Affinity On-target Cellular interaction (NanoBRET assay (HEK293T cells)) EUB0000007b JAK3. Set-up: mode of action Negative control for FM-381, recommended concentration 100 nM.
Assay [17] deals with P2Y purinoceptor 14 (Homo sapiens) (UniProt Q15391). Conditions: Affinity On-target Cellular Source Knowledge https://pubs.acs.org/doi/10.1021/jm200400m,https://pubs.acs.org/doi/10.1021/ml300280g, https://www.sgc-ffm.uni-frankfurt.de/#!specificprobeoverview/MSD-M1PAM.
For assay [18], the target named is Mas-related G-protein coupled receptor member X2 (Homo sapiens, UniProt Q96LB1). Description: Affinity On-target Cellular interaction (PRESTO-Tango concentration response assay (by the NIMH-PDSP)) EUB0000345a MRGPRX2. Set-up: mode of action Negative control for (R)-ZINC 3573, recommended concentration 1 uM.

Chain of Histone-lysine N-methyltransferase, H3 lysine-79 specific (Q8TEK3 whole entry): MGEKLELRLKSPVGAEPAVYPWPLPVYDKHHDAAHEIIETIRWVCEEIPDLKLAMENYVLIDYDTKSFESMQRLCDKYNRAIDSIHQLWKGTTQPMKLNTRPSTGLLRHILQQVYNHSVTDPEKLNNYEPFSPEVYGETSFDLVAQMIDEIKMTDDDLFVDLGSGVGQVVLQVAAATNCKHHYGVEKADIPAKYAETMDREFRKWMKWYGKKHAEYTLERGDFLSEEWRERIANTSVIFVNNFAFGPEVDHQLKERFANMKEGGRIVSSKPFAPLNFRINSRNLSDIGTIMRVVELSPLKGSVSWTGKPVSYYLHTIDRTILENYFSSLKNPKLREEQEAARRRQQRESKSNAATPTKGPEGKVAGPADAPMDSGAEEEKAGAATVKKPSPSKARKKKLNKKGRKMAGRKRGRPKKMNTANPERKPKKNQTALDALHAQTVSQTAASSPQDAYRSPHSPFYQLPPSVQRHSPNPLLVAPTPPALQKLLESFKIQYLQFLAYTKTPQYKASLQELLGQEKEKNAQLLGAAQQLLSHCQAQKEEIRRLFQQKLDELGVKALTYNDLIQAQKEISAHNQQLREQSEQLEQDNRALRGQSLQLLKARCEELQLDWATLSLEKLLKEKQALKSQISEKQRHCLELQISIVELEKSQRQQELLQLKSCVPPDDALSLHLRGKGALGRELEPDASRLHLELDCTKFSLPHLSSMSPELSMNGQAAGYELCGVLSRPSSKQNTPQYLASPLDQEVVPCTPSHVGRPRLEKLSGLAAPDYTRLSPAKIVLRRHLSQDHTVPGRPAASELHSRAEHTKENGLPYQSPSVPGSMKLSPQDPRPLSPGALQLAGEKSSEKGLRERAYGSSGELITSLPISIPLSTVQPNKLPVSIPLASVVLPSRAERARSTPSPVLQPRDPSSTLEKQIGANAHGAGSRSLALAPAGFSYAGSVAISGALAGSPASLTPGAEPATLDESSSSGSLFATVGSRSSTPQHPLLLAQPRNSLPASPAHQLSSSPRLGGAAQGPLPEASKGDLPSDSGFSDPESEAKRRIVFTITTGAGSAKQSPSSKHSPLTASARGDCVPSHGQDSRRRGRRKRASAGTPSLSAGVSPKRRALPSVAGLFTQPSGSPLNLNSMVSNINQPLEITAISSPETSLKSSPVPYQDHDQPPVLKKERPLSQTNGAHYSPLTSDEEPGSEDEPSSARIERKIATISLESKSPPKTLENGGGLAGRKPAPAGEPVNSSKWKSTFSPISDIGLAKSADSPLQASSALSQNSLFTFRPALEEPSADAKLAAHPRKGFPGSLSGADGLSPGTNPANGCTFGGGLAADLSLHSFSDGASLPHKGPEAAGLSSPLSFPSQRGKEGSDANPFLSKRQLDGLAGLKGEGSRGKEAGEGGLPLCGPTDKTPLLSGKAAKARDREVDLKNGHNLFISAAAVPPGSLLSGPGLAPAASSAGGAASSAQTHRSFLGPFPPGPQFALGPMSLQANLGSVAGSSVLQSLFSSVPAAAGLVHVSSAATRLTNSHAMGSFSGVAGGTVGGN
Chain of P2Y purinoceptor 14 (Homo sapiens) (Q15391 whole entry): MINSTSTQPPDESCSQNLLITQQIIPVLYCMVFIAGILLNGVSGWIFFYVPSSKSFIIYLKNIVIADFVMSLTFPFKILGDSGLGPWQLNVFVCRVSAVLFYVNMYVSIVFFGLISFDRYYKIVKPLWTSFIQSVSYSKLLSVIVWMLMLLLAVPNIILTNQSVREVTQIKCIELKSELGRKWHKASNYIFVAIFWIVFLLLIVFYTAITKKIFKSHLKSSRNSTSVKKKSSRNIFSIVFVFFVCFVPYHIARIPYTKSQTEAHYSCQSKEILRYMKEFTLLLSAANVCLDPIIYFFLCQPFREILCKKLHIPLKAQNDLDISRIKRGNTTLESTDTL
Chain of Tyrosine-protein kinase JAK3 (P52333 whole entry): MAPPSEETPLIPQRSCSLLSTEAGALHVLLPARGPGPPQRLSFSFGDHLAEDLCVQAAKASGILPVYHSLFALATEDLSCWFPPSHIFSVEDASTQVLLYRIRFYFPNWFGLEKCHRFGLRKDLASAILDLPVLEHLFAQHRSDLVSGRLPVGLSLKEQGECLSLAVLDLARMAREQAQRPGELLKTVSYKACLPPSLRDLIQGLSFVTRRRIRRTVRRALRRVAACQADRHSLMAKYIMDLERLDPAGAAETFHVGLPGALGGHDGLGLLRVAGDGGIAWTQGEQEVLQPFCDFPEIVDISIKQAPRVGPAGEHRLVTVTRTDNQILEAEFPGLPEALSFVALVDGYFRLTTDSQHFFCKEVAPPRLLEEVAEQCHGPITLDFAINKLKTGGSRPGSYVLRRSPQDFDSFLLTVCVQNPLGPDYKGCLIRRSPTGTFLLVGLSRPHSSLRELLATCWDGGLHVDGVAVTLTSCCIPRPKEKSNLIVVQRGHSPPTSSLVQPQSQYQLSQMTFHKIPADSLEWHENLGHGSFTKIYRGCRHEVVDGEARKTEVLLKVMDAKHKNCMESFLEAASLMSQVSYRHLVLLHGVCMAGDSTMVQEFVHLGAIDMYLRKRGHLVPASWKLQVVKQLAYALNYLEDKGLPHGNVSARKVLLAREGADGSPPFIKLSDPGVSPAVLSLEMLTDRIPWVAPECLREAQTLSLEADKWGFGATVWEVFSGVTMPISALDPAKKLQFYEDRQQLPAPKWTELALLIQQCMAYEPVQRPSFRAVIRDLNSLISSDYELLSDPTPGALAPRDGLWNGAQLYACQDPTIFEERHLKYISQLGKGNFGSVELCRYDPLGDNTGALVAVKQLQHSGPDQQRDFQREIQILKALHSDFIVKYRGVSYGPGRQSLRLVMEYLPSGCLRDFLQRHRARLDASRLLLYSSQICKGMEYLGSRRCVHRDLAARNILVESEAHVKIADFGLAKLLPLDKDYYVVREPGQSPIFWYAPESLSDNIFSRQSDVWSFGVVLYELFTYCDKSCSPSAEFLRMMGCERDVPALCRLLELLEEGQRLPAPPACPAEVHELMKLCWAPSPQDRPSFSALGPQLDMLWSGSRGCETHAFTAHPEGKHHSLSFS
Chain of RAC-beta serine/threonine-protein kinase (P31751 whole entry): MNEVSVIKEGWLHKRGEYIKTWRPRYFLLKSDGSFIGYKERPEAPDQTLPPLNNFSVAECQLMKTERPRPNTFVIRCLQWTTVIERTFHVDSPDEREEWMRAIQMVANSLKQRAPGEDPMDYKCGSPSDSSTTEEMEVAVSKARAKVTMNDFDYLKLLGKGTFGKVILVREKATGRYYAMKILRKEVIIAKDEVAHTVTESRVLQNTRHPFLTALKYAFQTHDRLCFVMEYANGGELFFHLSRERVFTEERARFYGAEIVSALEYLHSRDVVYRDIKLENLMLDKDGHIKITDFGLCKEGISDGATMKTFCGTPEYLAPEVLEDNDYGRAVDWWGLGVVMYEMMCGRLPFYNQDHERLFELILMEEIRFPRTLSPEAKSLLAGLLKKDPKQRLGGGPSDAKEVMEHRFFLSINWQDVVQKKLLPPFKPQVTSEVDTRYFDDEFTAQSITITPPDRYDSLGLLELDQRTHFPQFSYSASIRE
Chain of Histone acetyltransferase KAT2B (Q92831 whole entry): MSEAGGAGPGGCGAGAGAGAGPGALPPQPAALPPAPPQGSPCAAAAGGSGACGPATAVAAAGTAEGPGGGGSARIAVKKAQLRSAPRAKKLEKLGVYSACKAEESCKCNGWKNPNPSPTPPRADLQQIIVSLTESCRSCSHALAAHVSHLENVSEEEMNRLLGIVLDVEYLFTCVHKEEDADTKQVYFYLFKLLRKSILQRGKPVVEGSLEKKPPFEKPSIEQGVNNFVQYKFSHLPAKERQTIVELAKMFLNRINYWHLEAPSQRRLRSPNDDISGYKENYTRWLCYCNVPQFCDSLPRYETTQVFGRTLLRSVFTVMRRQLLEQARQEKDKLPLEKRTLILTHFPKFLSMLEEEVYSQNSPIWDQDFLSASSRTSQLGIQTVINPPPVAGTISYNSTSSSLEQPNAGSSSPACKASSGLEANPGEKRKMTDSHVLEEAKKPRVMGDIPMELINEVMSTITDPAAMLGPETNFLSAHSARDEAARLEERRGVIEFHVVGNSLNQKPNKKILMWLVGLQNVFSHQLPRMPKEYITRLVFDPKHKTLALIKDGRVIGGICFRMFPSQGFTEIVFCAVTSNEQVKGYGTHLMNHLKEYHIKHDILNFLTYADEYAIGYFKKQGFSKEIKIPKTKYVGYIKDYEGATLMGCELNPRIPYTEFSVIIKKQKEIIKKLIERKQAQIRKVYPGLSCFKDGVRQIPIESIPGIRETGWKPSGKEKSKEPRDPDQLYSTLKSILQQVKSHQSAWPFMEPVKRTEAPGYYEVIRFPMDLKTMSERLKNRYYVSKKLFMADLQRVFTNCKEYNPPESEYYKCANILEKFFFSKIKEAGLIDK
Chain of RAC-gamma serine/threonine-protein kinase (Q9Y243 whole entry): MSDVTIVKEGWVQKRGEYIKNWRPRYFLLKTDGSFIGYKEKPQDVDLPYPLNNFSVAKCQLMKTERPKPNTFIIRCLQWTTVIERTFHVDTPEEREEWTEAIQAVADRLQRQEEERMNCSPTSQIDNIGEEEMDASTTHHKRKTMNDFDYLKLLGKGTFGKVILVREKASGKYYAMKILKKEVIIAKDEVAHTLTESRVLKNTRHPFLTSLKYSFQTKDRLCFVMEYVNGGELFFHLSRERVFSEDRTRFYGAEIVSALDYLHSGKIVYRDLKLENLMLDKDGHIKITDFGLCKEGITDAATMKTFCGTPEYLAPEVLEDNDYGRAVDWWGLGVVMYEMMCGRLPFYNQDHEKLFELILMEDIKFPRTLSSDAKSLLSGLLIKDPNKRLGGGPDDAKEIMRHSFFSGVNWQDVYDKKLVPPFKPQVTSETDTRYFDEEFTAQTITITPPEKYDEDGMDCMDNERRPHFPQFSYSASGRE

In assay [1], `CC(C)N(CCCNC(=O)Nc1ccc(C(C)(C)C)cc1)C[C@H]1O[C@@H](n2cc(Br)c3c(N)ncnc32)[C@H](O)[C@@H]1O` yielded an IC50 of 2.6 nM. As to `CNc1nc(Nc2cnn([C@H]3CCN(C4COC4)C[C@@H]3F)c2Cl)ncc1C(F)(F)F`, half-maximal inhibition in [2] (IC50) required 19 nM. In the case of `CCCOc1ccn2c(C(C)=O)cc(-c3cccc(OC)c3)c2c1`, the Kd in assay [3] and in assay [4] was more than 10000 nM each time.

The molecule `Clc1cccc(-c2nnnn2Cc2cccnc2)c1Cl` registered an IC50 in [5] of 51 nM. This lies in the double-digit nanomolar range. In turn, `CCC(=O)N1CCOc2c(cc(-c3ccc(OC)c(OC)c3)cc2OC[C@H]2CCCN(C)C2)C1` showed an IC50 at CREB-binding protein of 600 nM. In the case of `CCCS(=O)(=O)c1nc(NC2CC2)cc(-c2ccc3c(ccn3C3CC(C)(C)NC(C)(C)C3)c2)n1`, in assay [6], the IC50 is 255 nM. On to `Cc1nnc2c3ccccc3c(N[C@@H](C)[C@H](c3ccccc3)N(C)C)nn12`, for which the IC50 in assay [7] is 220 nM; in assay [8] it was 660 nM. `Cc1c(C(=O)O)cc(-c2ccc(C3CCNCC3)cc2)c2ccc(-c3ccc(C(F)(F)F)cc3)cc12` gave a Ki in assay [9] of 8610 nM. Consider `C=CC(=O)Nc1ccc2[nH]c(=O)n(C3CCN(C(=O)c4ccc(-c5nc6cc[nH]c(=O)c6cc5-c5ccccc5)cc4)CC3)c2c1`, for which the IC50 is 1900 nM in [10], 8300 nM in [11] and 18000 nM in assay [12].

`Cc1c(Nc2ccc(S(=O)(=O)N3CCN(C)CC3)cc2F)nc2ccc(Nc3cnn(C4CC4)c3)cn2c1=O` yielded an IC50 in assay [13] of more than 10000 nM. As to `Cc1c(Nc2ccc(S(=O)(=O)N3CCN(C)CC3)cc2F)nc2ccc(-c3cnn(C4CC4)c3)cn2c1=O`, the IC50 in assay [14] was determined as 16 nM. `O=C([C@@H](Cc1cccc(C(F)(F)F)c1)NS(=O)(=O)c1cc(F)c2c(c1)CCNC2)N1CCCC1` had an EC50 in assay [15] of less than 10000 nM. The molecule `CN(C)C(=O)/C(C#N)=C/c1ccc(-c2nc3cnc4c(ccn4C)c3n2C2CCCCC2)o1` showed an IC50 in assay [16] of more than 10000 nM. As for `O=C(O)c1cc(-c2ccc(C3CCNCC3)cc2)c2ccc(-c3ccc(C(F)(F)F)cc3)cc2c1`, the Potentiation inflection point in [17] is more than 10 µM. `CN(C)[C@H]1CCN(c2cc(-c3ccccc3)nc3ccnn23)C1` [(S)-ZINC-3573] gave an EC50 in assay [18] of more than 100000 nM.
